Measurements reported in US20260210948A1, “FLUORESCENCE-BASED ASSAY FOR IDENTIFICATION OF PROTAC LIGANDS FOR HECT-TYPE E3 LIGASES” (Purdue Research Foundation, priority 2022, published 2026).

Experiments:
Rsp5 [1] = assay: Iodoacetamide inhibition assay, fluorescence polarization; format: biochemical, yeast (S. cerevisiae); settings: Rsp5 incubated with iodoacetamide 12.5-500 μM for 1 hour
Experimental: Inhibition assays were conducted by first incubating 0.5 μm Rsp5/NEDD4L-Rsp5HYBRID with varying concentration of iodoacetamide (12.5-500 μM) for 1 hour in the reaction buffer (50 mM Tris pH 7.4, 100 mM NaCl, 1 mg/ml BSA). Fluorescence polarization was then measured after adding 0.25 μm E1 enzyme, 0.5 μm UbcH7, 100 μm Ub and 10 μm fluorescein-labeled peptide to the reaction well. The Z-factor (Z′) for the assay was calculated using eight replicates of the positive control (no iodoacetamide addition) and negative control (500 μM iodoacetamide addition). The initial slopes of each of the 16 reactions were calculated, followed by calculation of the positive control and negative control means (μ_+ and μ_−) and standard deviations (σ_+ and σ_−). The mean and standard deviation values were then used to calculate the Z-factor using the following formula (II):
(§1) All assays were carried out at least in triplicate, at a final reaction volume of 100 μL, and utilizing Grenier 96 well plates (Product no. 655097). Fluorescence polarization was measured using a Synergy H4 Plate Reader (BioTek) using 485 nm excitation and 528 nm emission filters.
An iodoacetamide inhibition assay to mimic peptide displacement conditions was performed to test robustness and reproducibility. […]

Rsp5 [2] = assay: Peptide-ubiquitination fluorescence polarization assay with Rsp5; format: biochemical, yeast (S. cerevisiae); settings: Uba1, UbcH7, Rsp5 lacking the C2 domain, ATP and Ub; λex=485 nm; λem=528 nm
Experimental: Assays were performed by mixing […] enzyme, 0.5 μm UbcH7, 0.5 μm Rsp5/NEDD4L-Rsp5HYBRID, 100 μM Ub and 10 μM fluorescein-labeled peptide in (50 mM Tris pH 7.4, 100 mM NaCl, 1 mg/ml BSA) buffer. Reaction mixtures were left to equilibrate at room temperature for 10 minutes before taking measurements. Reactions were then started by adding 100 mM ATP. A sample of this reaction was also utilized for SDS-PAGE gel electrophoresis.
as §1
Target sequence in this assay (P39940 229-809 limits assumed): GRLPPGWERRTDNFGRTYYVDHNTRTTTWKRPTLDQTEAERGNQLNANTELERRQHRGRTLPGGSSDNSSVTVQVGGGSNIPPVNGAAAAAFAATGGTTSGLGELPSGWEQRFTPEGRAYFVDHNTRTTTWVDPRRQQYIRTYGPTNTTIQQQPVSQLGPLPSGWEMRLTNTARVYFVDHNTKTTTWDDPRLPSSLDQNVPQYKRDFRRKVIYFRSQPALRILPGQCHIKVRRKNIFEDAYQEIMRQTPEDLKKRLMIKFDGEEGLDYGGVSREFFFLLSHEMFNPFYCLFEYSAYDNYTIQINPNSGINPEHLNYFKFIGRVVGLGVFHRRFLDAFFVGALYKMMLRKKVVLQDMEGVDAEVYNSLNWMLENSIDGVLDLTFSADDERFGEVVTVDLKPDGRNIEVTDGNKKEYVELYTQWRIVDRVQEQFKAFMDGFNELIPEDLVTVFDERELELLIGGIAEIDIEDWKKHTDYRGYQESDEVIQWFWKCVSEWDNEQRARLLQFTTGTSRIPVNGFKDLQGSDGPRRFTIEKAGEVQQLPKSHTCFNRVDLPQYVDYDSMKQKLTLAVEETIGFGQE
A PPxY peptide based on a yeast vesicular snare protein (Sna4) containing the PPxY motif was designed, synthesized, and labeled with fluorescein at the N-terminus. An assay utilizing Uba1 (E1 ubiquitin (Ub)-activating enzyme), UbcH7 (E2 Ub-conjugating enzyme) and Rsp5 ([…] E3 Ub-ligase), which lacked the C2 domain to simplify in vitro screening, in the presence of adenosine triphosphate (ATP) and Ub was performed. Fluorescence polarization (FP) was recorded to monitor ubiquitination of the peptide. […] Ubiquitination of the PPxY peptide was confirmed by SDS-PAGE. […] No fluorescence polarization occurred in the absence of UbcH7, Rsp5, Ub, or ATP.

| Compound | rate of peptide ubiquitination (initial slope) (Rsp5 [1]) | fluorescence polarization (ubiquitination of the peptide) (Rsp5 [2]) |
| --- | --- | --- |
| NC(=O)CI [Iodoacetamide, iodoacetamide] | decreasing the rate of peptide ubiquitination |  |
| NKQSLVESPPPY [PPxY peptide, peptide mimicking residues 128-138 of yeast Sna4 with PPPY motif, fluorescein labeled on the N-terminus] |  | increase in fluorescence polarization |
